# Experimental data taken from ChEMBL document CHEMBL1138597, “Synthesis and biological evaluation of ((4-keto)-phenoxy)methyl biphenyl-4-sulfonamides: a class of potent aggrecanase-1 inhibitors” (Bioorg Med Chem Lett, 2009).
# Calls of active or inactive are those of the source. The rule behind the calls is not given here.
# How the values were obtained:
# [1] = biological target: T1, A disintegrin and metalloproteinase with thrombospondin motifs 4 (Bos taurus) (UniProt Q9TT93); assay: Inhibition of IL1-induced aggrecanase activity in bovine cartilage explant assessed as release of degraded extracellular matrix aggrecan
# T1 sequence (whole entry): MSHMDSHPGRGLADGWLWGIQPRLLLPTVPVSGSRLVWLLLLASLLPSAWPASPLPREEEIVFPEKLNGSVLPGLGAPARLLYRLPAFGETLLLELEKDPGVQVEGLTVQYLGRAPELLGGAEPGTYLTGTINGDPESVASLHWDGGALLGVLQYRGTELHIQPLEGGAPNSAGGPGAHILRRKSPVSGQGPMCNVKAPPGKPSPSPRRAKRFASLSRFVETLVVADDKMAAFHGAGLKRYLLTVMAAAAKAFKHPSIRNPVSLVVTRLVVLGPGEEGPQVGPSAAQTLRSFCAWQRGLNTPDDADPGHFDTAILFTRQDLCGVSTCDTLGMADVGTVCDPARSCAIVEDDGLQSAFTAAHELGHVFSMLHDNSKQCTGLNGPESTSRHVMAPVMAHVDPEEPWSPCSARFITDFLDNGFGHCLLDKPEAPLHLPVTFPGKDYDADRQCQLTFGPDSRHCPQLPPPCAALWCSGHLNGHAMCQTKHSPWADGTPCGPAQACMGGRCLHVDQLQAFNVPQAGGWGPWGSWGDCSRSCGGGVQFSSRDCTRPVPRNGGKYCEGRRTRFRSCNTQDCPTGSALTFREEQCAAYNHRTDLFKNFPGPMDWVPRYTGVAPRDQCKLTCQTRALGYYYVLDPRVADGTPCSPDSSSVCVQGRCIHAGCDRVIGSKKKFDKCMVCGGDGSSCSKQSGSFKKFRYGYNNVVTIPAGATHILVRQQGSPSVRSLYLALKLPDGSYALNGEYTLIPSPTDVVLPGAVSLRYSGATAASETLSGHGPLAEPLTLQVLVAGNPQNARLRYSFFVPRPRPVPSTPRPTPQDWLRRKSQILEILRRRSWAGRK
# [2] = biological target: T1, A disintegrin and metalloproteinase with thrombospondin motifs 4 (Bos taurus); assay: Inhibition of IL1-induced aggrecanase activity in bovine cartilage explant assessed as inhibition of proteoglycan degradation at 10 ug/ml after 3 days
# [3] = biological target: 72 kDa type IV collagenase (Homo sapiens, UniProt P08253); assay: Inhibition of MMP2
# [4] = biological target: T2, A disintegrin and metalloproteinase with thrombospondin motifs 5 (Homo sapiens) (UniProt Q9UNA0); assay: Inhibition of aggrecanase2 at 2.5 uM
# T2 sequence (whole entry): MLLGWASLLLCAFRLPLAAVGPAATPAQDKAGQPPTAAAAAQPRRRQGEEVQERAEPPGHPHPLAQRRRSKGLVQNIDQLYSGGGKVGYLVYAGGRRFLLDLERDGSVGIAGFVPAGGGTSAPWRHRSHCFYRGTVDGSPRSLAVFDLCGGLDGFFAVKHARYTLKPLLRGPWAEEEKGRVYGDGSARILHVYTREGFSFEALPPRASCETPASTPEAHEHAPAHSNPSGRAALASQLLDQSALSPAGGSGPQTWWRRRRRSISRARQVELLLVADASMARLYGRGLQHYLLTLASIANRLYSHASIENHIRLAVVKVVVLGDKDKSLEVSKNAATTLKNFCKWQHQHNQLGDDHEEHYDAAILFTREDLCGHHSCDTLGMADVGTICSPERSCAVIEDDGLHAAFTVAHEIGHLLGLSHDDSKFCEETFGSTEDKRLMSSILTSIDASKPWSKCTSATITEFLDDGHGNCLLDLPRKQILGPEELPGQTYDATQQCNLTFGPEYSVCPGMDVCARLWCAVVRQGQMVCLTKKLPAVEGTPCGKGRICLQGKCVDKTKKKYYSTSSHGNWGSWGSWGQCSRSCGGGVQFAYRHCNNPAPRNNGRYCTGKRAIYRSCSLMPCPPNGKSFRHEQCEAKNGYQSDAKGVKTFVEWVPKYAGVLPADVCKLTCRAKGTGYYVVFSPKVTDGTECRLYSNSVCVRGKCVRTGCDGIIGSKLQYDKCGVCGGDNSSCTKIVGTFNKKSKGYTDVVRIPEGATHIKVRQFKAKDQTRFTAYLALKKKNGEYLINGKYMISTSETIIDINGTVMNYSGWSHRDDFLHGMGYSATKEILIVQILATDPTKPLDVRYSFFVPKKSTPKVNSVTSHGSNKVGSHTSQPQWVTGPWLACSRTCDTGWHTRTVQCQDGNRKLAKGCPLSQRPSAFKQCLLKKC
# [5] = biological target: Matrix metalloproteinase-14 (Homo sapiens, UniProt P50281); assay: Inhibition of MMP14
# [6] = biological target: T3, A disintegrin and metalloproteinase with thrombospondin motifs 4 (Homo sapiens, UniProt O75173); assay: Inhibition of aggrecanase1
# T3 sequence (O75173 whole entry): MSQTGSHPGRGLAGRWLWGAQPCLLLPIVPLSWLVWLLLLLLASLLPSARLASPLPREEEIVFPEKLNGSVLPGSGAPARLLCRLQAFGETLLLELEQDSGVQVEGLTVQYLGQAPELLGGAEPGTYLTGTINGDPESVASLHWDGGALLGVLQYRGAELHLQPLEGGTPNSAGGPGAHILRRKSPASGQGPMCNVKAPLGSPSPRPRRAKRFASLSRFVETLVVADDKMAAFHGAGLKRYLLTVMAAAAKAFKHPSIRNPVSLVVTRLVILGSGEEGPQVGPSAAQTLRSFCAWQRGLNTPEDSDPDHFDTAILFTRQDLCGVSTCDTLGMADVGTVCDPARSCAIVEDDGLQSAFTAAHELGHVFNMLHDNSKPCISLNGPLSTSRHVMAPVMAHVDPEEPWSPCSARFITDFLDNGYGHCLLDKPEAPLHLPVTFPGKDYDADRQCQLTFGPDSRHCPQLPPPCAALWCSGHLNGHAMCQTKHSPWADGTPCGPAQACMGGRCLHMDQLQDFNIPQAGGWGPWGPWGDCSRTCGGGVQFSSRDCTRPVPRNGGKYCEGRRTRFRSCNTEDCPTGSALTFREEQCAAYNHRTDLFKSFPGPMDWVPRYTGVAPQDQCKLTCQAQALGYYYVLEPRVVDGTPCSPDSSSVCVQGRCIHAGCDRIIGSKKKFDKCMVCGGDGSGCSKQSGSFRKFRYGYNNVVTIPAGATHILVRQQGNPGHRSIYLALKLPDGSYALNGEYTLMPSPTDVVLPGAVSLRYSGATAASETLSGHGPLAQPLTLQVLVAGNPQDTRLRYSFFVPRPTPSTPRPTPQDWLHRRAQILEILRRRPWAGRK
# Interstitial collagenase = biological target: T4, Interstitial collagenase (Homo sapiens, UniProt P03956); assay: Inhibition of MMP1
# T4 sequence (P03956 whole entry): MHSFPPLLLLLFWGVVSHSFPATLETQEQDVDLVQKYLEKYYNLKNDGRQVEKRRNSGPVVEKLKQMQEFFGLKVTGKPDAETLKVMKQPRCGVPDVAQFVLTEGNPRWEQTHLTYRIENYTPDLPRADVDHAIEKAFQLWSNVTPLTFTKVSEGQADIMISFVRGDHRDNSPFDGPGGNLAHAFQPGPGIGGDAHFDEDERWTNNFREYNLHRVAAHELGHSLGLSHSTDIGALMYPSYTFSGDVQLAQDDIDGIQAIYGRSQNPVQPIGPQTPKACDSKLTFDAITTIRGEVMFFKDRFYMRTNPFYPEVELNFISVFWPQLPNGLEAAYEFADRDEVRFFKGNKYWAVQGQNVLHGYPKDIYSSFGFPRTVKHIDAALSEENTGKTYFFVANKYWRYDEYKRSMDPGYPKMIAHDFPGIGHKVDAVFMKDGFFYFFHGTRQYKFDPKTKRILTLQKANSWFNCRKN
# Collagenase 3 = Collagenase 3 (Homo sapiens, UniProt P45452); assay: Inhibition of MMP13
# [7] = biological target: T5, A disintegrin and metalloproteinase with thrombospondin motifs 5 (Homo sapiens, UniProt Q9UNA0); assay: Inhibition of aggrecanase2
# T5 sequence (Q9UNA0 whole entry): T2 sequence (whole entry)
# [8] = Clearance in Sprague-Dawley rat at 2 mg/kg, iv or 25 mg/kg, po; assay type: ADME, organism-based; conditions: in vivo
# [9] = Oral bioavailability in Sprague-Dawley rat at 25 mg/kg; assay type: ADME, organism-based; conditions: in vivo
# [10] = Cmax in Sprague-Dawley rat at 2 mg/kg, iv or 25 mg/kg, po; assay type: ADME, organism-based; conditions: in vivo
# [11] = Half life in Sprague-Dawley rat at 2 mg/kg, iv or 25 mg/kg, po; assay type: ADME, organism-based; conditions: in vivo
# Sequence of 72 kDa type IV collagenase (P08253 whole entry): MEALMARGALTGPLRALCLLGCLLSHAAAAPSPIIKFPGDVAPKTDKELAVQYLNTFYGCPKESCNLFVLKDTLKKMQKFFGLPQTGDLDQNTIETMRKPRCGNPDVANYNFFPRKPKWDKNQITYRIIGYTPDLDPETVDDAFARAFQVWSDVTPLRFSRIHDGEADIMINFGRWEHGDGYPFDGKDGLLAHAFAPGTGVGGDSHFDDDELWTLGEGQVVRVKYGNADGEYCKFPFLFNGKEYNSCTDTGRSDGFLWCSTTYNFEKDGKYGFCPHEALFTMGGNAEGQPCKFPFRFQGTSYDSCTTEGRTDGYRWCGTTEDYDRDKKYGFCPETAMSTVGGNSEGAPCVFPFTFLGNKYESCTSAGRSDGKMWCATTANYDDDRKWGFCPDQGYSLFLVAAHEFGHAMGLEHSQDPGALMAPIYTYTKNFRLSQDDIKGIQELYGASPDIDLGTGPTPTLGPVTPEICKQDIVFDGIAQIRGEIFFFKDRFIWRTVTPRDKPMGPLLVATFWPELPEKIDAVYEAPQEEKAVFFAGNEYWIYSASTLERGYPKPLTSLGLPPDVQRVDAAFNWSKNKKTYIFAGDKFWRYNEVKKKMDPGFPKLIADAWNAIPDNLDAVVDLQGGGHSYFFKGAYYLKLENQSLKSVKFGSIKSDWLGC
compound,measurement,setting,value
CC(C)[C@@H](NS(=O)(=O)c1ccc(-c2ccc(COc3ccc(C(=O)c4ccc(F)cc4)cc3)cc2)cc1)C(=O)O,Activity,[1],Active
same,inhibition,[2],71%
same,IC50,[3],3.6 nM
same,inhibition,[4],55%
same,IC50,[5],220 nM
same,IC50,[6],80 nM
same,IC50,Interstitial collagenase,> 100000 nM
same,IC50,Collagenase 3,6.3 nM
CC(C)[C@@H](NS(=O)(=O)c1ccc(-c2ccc(COc3ccc4c(c3)CCCC4=O)cc2)cc1OC(F)(F)F)C(=O)O,IC50,[6],20000 nM
CC(C)[C@@H](NS(=O)(=O)c1ccc(-c2ccc(COc3ccc4ccccc4n3)cc2)cc1)C(=O)O,IC50,[6],400 nM
CC(C)[C@@H](NS(=O)(=O)c1ccc(-c2ccc(COc3ccc(CN4CCOCC4)cc3)cc2)cc1)C(=O)O,IC50,[6],6000 nM
CC(C)[C@@H](NS(=O)(=O)c1ccc(-c2ccc(COc3ccc(C(=O)c4ccccc4)cc3)cc2)cc1)C(=O)O,IC50,[6],230 nM
CC(C)[C@@H](NS(=O)(=O)c1ccc(-c2ccc(COc3cc4cccc(C(F)(F)F)c4nc3C(F)(F)F)cc2)cc1)C(=O)O,IC50,[6],200 nM
CC(C)C(=O)c1ccc(OCc2ccc(-c3ccc(S(=O)(=O)N[C@@H](C(=O)O)C(C)C)cc3)cc2)cc1,Activity,[1],Active
same,Activity,[2],Active
same,IC50,[3],1.3 nM
same,IC50,[5],915 nM
same,IC50,Interstitial collagenase,> 100000 nM
same,IC50,Collagenase 3,1.1 nM
Cc1c(CC(=O)Oc2ccc(-c3ccc(S(=O)(=O)N[C@@H](C(=O)O)C(C)C)cc3)cc2)oc2ccccc12,IC50,[6],700 nM
CC(C)[C@@H](NS(=O)(=O)c1ccc(-c2ccc(COc3ccc4c(c3)CCCC4=O)cc2)cc1)C(=O)O,Activity,[1],Active
same,inhibition,[2],53%
same,IC50,[3],6.3 nM
same,IC50,[5],1300 nM
same,IC50,[6],230 nM
same,IC50,[7],6600 nM
same,IC50,Interstitial collagenase,> 100000 nM
same,IC50,Collagenase 3,2.2 nM
CC(C)[C@@H](NS(=O)(=O)c1ccc(-c2ccc(COc3ccc(C(=O)N4CCOCC4)cc3)cc2)cc1)C(=O)O,IC50,[6],5200 nM
Cc1cccc(Oc2ccc(OCc3ccc(-c4ccc(S(=O)(=O)N[C@@H](C(=O)O)C(C)C)cc4)cc3)cc2)n1,IC50,[6],730 nM
CC(C)[C@@H](NS(=O)(=O)c1ccc(-c2ccc(COc3ccc(NC(=O)OC(C)(C)C)cc3)cc2)cc1)C(=O)O,IC50,[6],590 nM
CC(C)[C@@H](NS(=O)(=O)c1ccc(-c2ccc(COc3ccc4c(c3)CCCC4=O)cc2)cc1F)C(=O)O,IC50,[6],180 nM
CC(C)[C@@H](NS(=O)(=O)c1ccc(-c2ccc(COc3ccc4c(c3)CCCC4=O)cc2)cc1C(F)(F)F)C(=O)O,IC50,[6],3200 nM
CC(C)[C@@H](NS(=O)(=O)c1ccc(-c2ccc(COc3cccc(N(C)C)c3)cc2)cc1)C(=O)O,IC50,[6],4900 nM
CC(=O)c1ccc(OCc2ccc(-c3ccc(S(=O)(=O)N[C@@H](C(=O)O)C(C)C)cc3)cc2)cc1,IC50,[6],430 nM
CC(C)[C@@H](NS(=O)(=O)c1ccc(-c2ccc(COc3ccc(C(=O)C4CCCCC4)cc3)cc2)cc1)C(=O)O,Activity,[1],Active
same,clearance,[8],6.9 mL/min/kg
same,inhibition,[2],69%
same,bioavailability,[9],13%
same,IC50,[3],5.3 nM
same,IC50,[5],1640 nM
same,IC50,[6],90 nM
same,Cmax,[10],694 ng/mL
same,IC50,Interstitial collagenase,> 100000 nM
same,half-life,[11],3.07 h
same,IC50,Collagenase 3,15 nM
